For the test, the system named is CEM cells HIV-1 protection, formazan growth assay. Description: NCI AIDS Antiviral Assay. As to conditions: for IC50: measured here: growth of uninfected CEM cells. The procedure, abridged: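 Soluble formazan readout of cell growth; CEM cells ± HIV-1; 5 drug concs. ≥50% protection → retest; ≥50% again = moderately active; reproducible 100% = confirmed active.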

Activity calls are given as the source filed them.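 The calls were made as follows: active = compounds giving half or more protection of infected cells from virus-caused growth loss, again on retest; inactive = the rest.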 Bounds are passed on as bounds.

`CC1CC(=O)Nc2cc(C(F)(F)F)ccc2N1` (stereo not drawn): the EC50 is over 200 µM and the IC50 was over 200 µM.

For the compound `CCCCCCCCCCCCCCCC(=O)OCC1OC(n2ccc(N)nc2=O)C(O)C1O` (stereo not drawn), the EC50 is over 0.2 µM and the concentration for half-maximal inhibition (IC50) was 0.0129 µM.

With `CC1(C)C(=NO)C(C)(C)C1=NO`, the result was inactive.

Regarding `O=C(CCn1[nH]c(=O)c(Cl)c(Cl)c1=O)NOCCCc1ccccc1`, the EC50 is over 646 µM and the 50% inhibitory concentration (IC50) was over 646 µM.

With `CCCN(CCC)C(=S)N/N=C/c1ccccn1`, the EC50 is over 2 µM and the IC50 turned out to be 0.0126 µM.

Take `CC1(C)CC(=O)c2c(nc3ccc4ccccc4c3c2-c2ccc(NC(=O)CCCC(=O)Nc3ccc(-c4c5c(nc6ccc7ccccc7c46)CC(C)(C)CC5=O)cc3)cc2)C1`: the EC50 is over 100 µM and the half-maximal inhibitory concentration (IC50) is over 100 µM.

For the compound `CN(C)CC1CCC/C(=C\c2ccc(Cl)cc2)C1=O` (stereo not drawn), the EC50 is over 20 µM and the IC50 was found to be 0.977 µM.

On to `O=CN/C=C/c1ccccc1`, for which the EC50 is over 200 µM and the IC50 is over 200 µM.

With `CC1C2(C)OC(=N)C(C#N)(C(C)O2)C1(C#N)C#N` (stereo not drawn), the EC50 is over 200 µM and the IC50 was 9.77 µM.

For `O=C(NCCCCCCNC(=O)n1cc(F)c(=O)[nH]c1=O)NCCCOCCOCCOCCOCCOCCOCCOCCOCCOCCOCCOCCOCCOCCOCCOCCOCCOCCOCCOCCOCCOCCCNC(=O)C(O)C(O)C(OC1OC(CO)C(O)C(O)C1O)C(O)CO` (stereo not drawn), the outcome was inactive.

As to `Cc1c(C)c(CC(=O)N2CC2)c(C)c(C)c1CC(=O)N1CC1`, the EC50 is over 200 µM and the IC50 was found to be 0.794 µM.

`COc1cc(C(C)O)c[n+](CCc2c[nH]c3ccccc23)c1` (stereo not drawn): the EC50 is over 234 µM and the IC50 was over 234 µM.

Regarding `CCOC(=O)/C(=C\c1ccc(F)cc1)P(=O)(OCC)OCC`, the EC50 is over 759 µM and the IC50 turned out to be 15.1 µM.

Take `Cc1nc2ccc(N=Nc3c(O)ccc4ccccc34)cc2[nH]1`: the EC50 was over 61.7 µM and the IC50 came to 55 µM.

`O=[N+]([O-])c1ccc(NC(c2ccccc2)P(=O)(Oc2ccccc2)Oc2ccccc2)cc1` (stereo not drawn): the EC50 is over 5.89 µM and the half-maximal inhibitory concentration (IC50) was over 5.89 µM.

Take `COc1nc(NC2OC(COC(C)=O)C(OC(C)=O)C(OC(C)=O)C2OC(C)=O)c(-c2csc(N)n2)c(=O)n1C` (stereo not drawn): the EC50 is over 6.17 µM and the IC50 was over 6.17 µM.

Take `COc1cccc2c1C(=O)c1c(O)c3c(c(O)c1C2=O)C[C@@](O)(C(C)=O)C[C@@H]3OC1CC(N(Cc2ccccc2)Cc2ccccc2)C(O)C(C)O1` (stereo partly drawn): the result was inactive.

Turning to `Cc1cc(C)nc(NS(=O)(=O)c2ccc(NN=c3c4ccccc4n(C)c4ccccc34)cc2)n1`, the EC50 is over 200 µM and the half-inhibitory concentration (IC50) is 11.2 µM.

Consider `CCCCCCCCCCCCCCCC(=O)OCC1OC(n2cc(F)c(=O)[nH]c2=O)C(NC(=O)N(CCCl)N=O)C(O)C1O` (stereo not drawn), for which the EC50 was over 20.4 µM and the half-maximal inhibitory concentration (IC50) amounted to 3.47 µM.

`COC(=O)[C@@H]1Cc2c([nH]c3ccccc23)[C@H](c2ccccc2)N1`: the outcome was inactive.

Consider `COC(=O)C1=C2Nc3ccccc3[C@@]23CCN(Cc2ccccc2)[C@H]3CC1[C@H](O)CO` (stereo partly drawn), for which the EC50 was over 148 µM and the IC50 came to 83.2 µM.

On to `CCCn1c(SCC)c2ccccc2c1-c1nc(F)nc(F)n1`, for which the EC50 was over 8.13 µM and the IC50 is over 8.13 µM.

`COC(=O)C1(Cc2ccc(C)cc2)Cc2c(C)cccc2C1=O` (stereo not drawn): the EC50 was over 200 µM and the half-inhibitory concentration (IC50) stood at 8.91 µM.

Turning to `CCOC(=O)C1Cc2ccc(C)cc2C1=O` (stereo not drawn), the EC50 is over 200 µM and the half-maximal inhibitory concentration (IC50) came out at 110 µM.

With `Cl[Si]1(Cl)Oc2ccccc2O[Si](Cl)(Cl)Oc2ccccc2O1`, the EC50 is over 12.6 µM and the IC50 is over 12.6 µM.

Turning to `COc1ccc(C2=Nn3c(nc4sc(C)c(C)c4c3=O)SC2)cc1`, the EC50 was over 200 µM and the IC50 is over 200 µM.

For `COc1ccc(N2C(=O)[C@H]3[C@H]4CC(C(C)(C)C)CC[C@H]4c4c(n(C)c5ccccc45)[C@H]3C2=O)cc1` (stereo partly drawn), the EC50 is over 15.1 µM and the concentration for half-maximal inhibition (IC50) was over 15.1 µM.

`O=c1c(SCc2ccccc2)c(N2CCOCC2)cnn1-c1ccccc1`: the EC50 was over 661 µM and the IC50 came to 575 µM.

As to `N#C/C(=C\c1cc(O)c(O)c(Br)c1)C(=O)NCCCNC(=O)/C(C#N)=C/c1cc(O)c(O)c(Br)c1`, the EC50 was over 200 µM and the IC50 turned out to be 112 µM.

Take `O=c1c2c([nH]n1-c1ccccc1)-c1ccccc1CS2`: the EC50 was over 204 µM and the 50% inhibitory concentration (IC50) turned out to be 135 µM.

For the compound `COc1cccc2cc(C(=O)Nc3ccccc3)c(=N)oc12`, the EC50 was over 200 µM and the IC50 is over 200 µM.

As for `C#CN1C(=O)c2c(c(-c3ccccc3)c(-c3ccc(Oc4ccc(-c5c(-c6ccccc6)c6c(c(-c7ccccc7)c5-c5ccccc5)C(=O)N(C#C)C6=O)cc4)cc3)c(-c3ccccc3)c2-c2ccccc2)C1=O`, the EC50 is over 10.2 µM and the half-inhibitory concentration (IC50) is over 10.2 µM.

With `CC(=O)[O-].O=[N+]([O-])c1ccc([O-])c(C=NCCN=Cc2cc([N+](=O)[O-])ccc2[O-])c1.[Mn+3]`, the EC50 was over 229 µM and the IC50 amounted to 4.37 µM.

On to `COC(=O)C(=O)C(C(=O)C(=O)Nc1nc(=S)[nH][nH]1)c1nc2ccc([N+](=O)[O-])cc2[nH]c1=O` (stereo not drawn), for which the EC50 was over 282 µM and the concentration for half-maximal inhibition (IC50) was over 282 µM.

For `S=C(N/N=C/c1ccco1)NC12CC3CC(CC(C3)C1)C2`, the outcome was inactive.

For the compound `COC(=O)C1C2C=CC(C2)N1S(=O)(=O)c1ccccc1` (stereo not drawn), the EC50 was over 200 µM and the half-inhibitory concentration (IC50) is over 200 µM.

Consider `COc1cc(-c2cc(=O)c3c(O)cc(C)cc3o2)cc(OC)c1OC`, for which the EC50 was over 200 µM and the half-inhibitory concentration (IC50) is over 200 µM.

As to `CC(=O)N1OC2(C)c3ccccc3C1(C)c1ccccc12`, the EC50 was over 25.7 µM and the half-inhibitory concentration (IC50) worked out at 23.4 µM.

As to `Oc1cc(F)cc2cccnc12`, the result was inactive.

Regarding `C=CCC(C(=O)OC)C1(C(=O)OC)NCCc2c1[nH]c1ccccc21` (stereo not drawn), the EC50 is over 324 µM and the 50% inhibitory concentration (IC50) was 178 µM.

With `CNC(=O)N1CN(c2ccccc2)C2(CCN(CCCC3(c4ccc(F)cc4)OCCO3)CC2)C1=O`, the EC50 was over 200 µM and the IC50 came to 38.9 µM.

As to `OC1c2ccccc2C(O)c2c1ccc1c2CN(Cc2ccccc2)CC1` (stereo not drawn), the EC50 is over 72.4 µM and the 50% inhibitory concentration (IC50) was determined as 12.6 µM.

With `O=c1cc(O)nc2nc(-c3ccccc3)c(-c3ccccc3)nn12`, the EC50 is over 81.3 µM and the IC50 is over 81.3 µM.

On to `O=S(=O)(Nc1nnc2ccc3ccccc3n12)c1ccc(F)cc1S`, for which the EC50 is over 200 µM and the IC50 was found to be 110 µM.

For the compound `COc1ccc(-n2c(C)nc3ccc(NC4OCC(OC(C)=O)C(OC(C)=O)C4OC(C)=O)cc3c2=O)cc1` (stereo not drawn), the EC50 is over 200 µM and the half-maximal inhibitory concentration (IC50) was 123 µM.

`C[C@H](NC(=O)c1ccccc1SC(=O)NCCCCl)C(N)=O` had a concentration giving a half-maximal response (EC50) of 3.63 µM and an IC50 of 44.7 µM.

`COc1ccc(NC(=O)/N=C2\CN(C(=O)c3c(F)cccc3F)C(=O)N2c2ccc(OC)cc2)cc1`: the EC50 is over 200 µM and the concentration for half-maximal inhibition (IC50) amounted to 129 µM.

In the case of `c1cnc2nc3n(c2c1)CSC3`, the EC50 is over 380 µM and the IC50 was found to be 355 µM.

As for `C=C1C(=O)O[C@H]2[C@H]1CC(=O)/C(C)=C/CC[C@@]1(C)O[C@@H]21`, the EC50 was over 2 µM and the IC50 is 0.794 µM.

Take `Oc1cc(Cl)cc2cc(Br)cnc12`: the outcome was inactive.

Consider `O[C@@H]1CCNC[C@@H]1CNC12CC3CC(CC(C3)C1)C2`, for which the EC50 was over 955 µM and the IC50 came to 275 µM.

With `CN1C(=N\S(=O)(=O)c2ccc(Cl)cc2)/C(=N/N=P(c2ccccc2)(c2ccccc2)c2ccccc2)c2ccccc21`, the EC50 was over 2.34 µM and the IC50 is over 2.34 µM.

As to `NC(=Nc1ccccc1)N(c1ccccc1)c1nc(=S)ss1`, the EC50 is over 200 µM and the concentration for half-maximal inhibition (IC50) was determined as 83.2 µM.

As to `Cn1c2c(c3ccccc31)CCN(CCCCN1CCN(c3ccccc3)CC1)C2=O`, the EC50 is over 30.9 µM and the IC50 is over 30.9 µM.

On to `O=C(NNC(=O)c1ccncc1)c1ccncc1`, for which the EC50 was over 200 µM and the half-inhibitory concentration (IC50) is over 200 µM.

As for `O=C1N=NC(=O)c2ccccc21`, the EC50 was over 200 µM and the 50% inhibitory concentration (IC50) is over 200 µM.

Consider `Cc1cc([N+](=O)[O-])c(C)c2c1[nH]c1ccc(Cl)cc12`, for which the EC50 was over 10 µM and the IC50 is over 10 µM.

Regarding `O=C(O)/C=C\CCCCC(=O)O`, the EC50 is over 1450 µM and the half-inhibitory concentration (IC50) is over 1450 µM.

Consider `COc1cc2oc(=O)ccc2cc1CC=C(C)C`, for which the EC50 is over 40.7 µM and the IC50 is over 40.7 µM.

On to `COc1ccc(/C=C2\C(=O)N(C)C(=O)c3cc(OC)c(OC)cc32)cc1OC`, for which the EC50 is over 100 µM and the half-maximal inhibitory concentration (IC50) was 51.3 µM.

`S=c1n(-c2ccc(Cl)cc2)c2/c(=N\Nc3cc(Cl)ccc3Cl)c(n1-c1ccccn1)=NCCN=2`: the EC50 was over 200 µM and the half-inhibitory concentration (IC50) was over 200 µM.

Turning to `COc1cc(C(=O)OC2CC(C)=CC[C@@]3(C)CC[C@](O)(C(C)C)C23)ccc1O` (stereo partly drawn), the EC50 was over 200 µM and the IC50 was determined as 8.51 µM.

Consider `Cc1ccc(C(=O)Oc2ccc(/C=C3\CCC/C(=C\c4ccc(OC(=O)c5ccc(C)cc5)cc4)C3=O)cc2)cc1`, for which the EC50 was over 100 µM and the IC50 was over 100 µM.

Regarding `CCCCCCCCCC=C(c1cc(Br)cc(C(=O)O)c1O)c1cc(Br)cc(C(=O)O)c1O`, the EC50 was over 22.9 µM and the half-maximal inhibitory concentration (IC50) is over 22.9 µM.

As to `CC(CNCCCNCCNCCCNCO)[N+](=O)[O-]` (stereo not drawn), the result was inactive.

Regarding `COc1c(Cl)cc(C(=CCN[C@H]2CC[C@@]3(C)[C@@H](CC[C@@H]4[C@@H]3CC[C@]3(C)[C@@H]([C@H](C)CCCC(C)C)CC[C@@H]43)C2)c2cc(Cl)c(OC)c(C(=O)O)c2)cc1C(=O)O`, the EC50 is over 50.1 µM and the half-maximal inhibitory concentration (IC50) is over 50.1 µM.

For the compound `ClC(Cl)=CC(Cl)(Cl)C(Cl)(Cl)C(Cl)(Cl)Cl`, the EC50 is over 200 µM and the half-maximal inhibitory concentration (IC50) was 5.5 µM.

On to `CCc1cccc(C)c1NC(=S)NC(=O)c1ccccc1C(=O)NC(=S)Nc1c(C)cccc1CC`, for which the EC50 was over 69.2 µM and the half-inhibitory concentration (IC50) is over 69.2 µM.

Values taken from PubChem BioAssay AID179 (DTP/NCI, 2004).
